# Test results taken from patent US11866437B1, “1,2-dioxo-2,3-dihydro-1H-pyrrolo[2,3-c]quinoline-7-carboxylic acid compounds as CK2 inhibitors” (KING FAISAL UNIVERSITY, priority 2023, dated 2024).
# Tests used:
# [1] = test system: MCF7 (breast); assay: In vitro cytotoxic activity MTT assay, MCF7; type: cell-based; conditions: Homo sapiens; MCF7 cells, exposed for 96 hours; read-out: IC50, 50% inhibition of cell proliferation, MCF7 (breast)
# Description: (§1) Compounds 1-16 were screened for their in vitro cytotoxic activity utilizing a 3-(4,5-dimethyl-thiazol-2-yl)-2,5-diphenyltetrazolium bromide (MTT) assay against selected cancer human cell lines consisting of PC3 (prostate), HCT116 (colon), A375 (melanoma), H1299 (lung), MIAPaCa-2 (pancreas), HL60 (leukemia), MCF7 (breast), MDA-MB-231 (breast) (T. Mosmann, J. Immunol. Meth., 1983, 65, 55-63). The cells were cultured at 37° C. in RMPI1640 medium supplemented with 10% fetal bovine serum, 50 IU/mL penicillin, and 50 μg/mL streptomycin in a 5% CO2 incubator. All cells were sub-cultured 3 times/week by trypsinisation. Viable cells were seeded and allowed to adhere for 12 h before a test drug was added in 96-well plates at an initial density of 1.0×10^5 cells/mL. Tumour cell lines were separately exposed to various concentrations of the tested compounds followed by incubation at a temperature of 37° C. during 96 h inside a medium of fresh RMPI 1640. Cells were subsequently incubated at 37° C. using MTT at 0.5 mg/mL during 4 h. After removal of supernatant, formazan crystals were dissolved in isopropanol and the optical density was measured at 570 nm. CX-4945 was used as a positive control.
# [2] = target: T1, recombinant human CK2 (Homo sapiens, UniProt P68400); assay: CK2 Kinase Assay (33P-ATP, substrate peptide RRRDDDSDDD); type: biochemical; conditions: final ATP concentration 15 μM, 10 min at 30° C.; read-out: protein kinase CK2 IC50
# T1 construct: purchased Millipore
# T1 sequence (P68400 whole entry): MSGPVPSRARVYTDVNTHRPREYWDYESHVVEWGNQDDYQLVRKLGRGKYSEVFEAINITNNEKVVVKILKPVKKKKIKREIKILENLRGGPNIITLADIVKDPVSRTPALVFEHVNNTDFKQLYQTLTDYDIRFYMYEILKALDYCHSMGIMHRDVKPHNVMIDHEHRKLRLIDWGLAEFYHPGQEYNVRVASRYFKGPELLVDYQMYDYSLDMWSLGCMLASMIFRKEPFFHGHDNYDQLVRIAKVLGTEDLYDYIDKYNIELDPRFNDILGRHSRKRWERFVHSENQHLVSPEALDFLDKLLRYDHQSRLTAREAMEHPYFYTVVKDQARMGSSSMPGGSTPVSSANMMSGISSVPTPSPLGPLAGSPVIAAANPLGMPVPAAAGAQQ
# T1 sequence (P67870 whole entry partner): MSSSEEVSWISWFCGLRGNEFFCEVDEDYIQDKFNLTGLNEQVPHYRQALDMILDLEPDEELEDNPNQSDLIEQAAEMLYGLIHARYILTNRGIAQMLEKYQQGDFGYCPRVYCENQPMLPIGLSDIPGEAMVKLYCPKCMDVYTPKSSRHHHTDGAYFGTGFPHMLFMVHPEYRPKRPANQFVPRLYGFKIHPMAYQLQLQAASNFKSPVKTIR
# Description: CK2 Kinase Assay was conducted using the protocol as described in Pierre F. et al; J. Med. Chem. 2011, 54, 635-654. The tested compounds in aqueous solution were added at a volume of 10 μL to a reaction mixture comprising 10 μL of assay dilution buffer (ADB; 20 mM MOPS, pH 7.2, 25 mM β-glycerol phosphate, 5 mM EGTA, 1 mM sodium orthovanadate, and 1 mM dithiothreitol), 10 μL of substrate peptide (RRRDDDSDDD, dissolved in ADB at a concentration of 1 mM), 10 μL of recombinant human CK2 (RR-holoenzyme, 25 ng dissolved in ADB; Millipore). Reactions were initiated by the addition of 10 μL of ATP solution (90% 75 mMMgCl2, 75 μM ATP (final ATP concentration:15 μM) dissolved in ADB; 10% [γ-33P] ATP (stock 1 mCi/100 μL; 3000 Ci/mmol (Perkin-Elmer) and maintained for 10 min at 30° C. The reactions were quenched with 100 μL of 0.75% phosphoric acid and then transferred to and filtered through a phosphor cellulose filter plate (Millipore). After washing each well five times with 0.75% phosphoric acid, the plate was dried under vacuum for 5 min and, following the addition of 15 μL of scintillation fluid to each well, the residual radioactivity was measured using a Wallac […] counter. The IC50 values were derived from eight concentrations of test inhibitors.
# [3] = test system: HCT116 (colon); assay: In vitro cytotoxic activity MTT assay, HCT116; type: cell-based; conditions: Homo sapiens, HCT-116; HCT116 cells, exposed for 96 hours; read-out: IC50, 50% inhibition of cell proliferation, HCT116 (colon)
# Description: as §1
# [4] = test system: MDA-MB-231 (breast); assay: In vitro cytotoxic activity MTT assay, MDA-MB-231; type: cell-based; conditions: Homo sapiens; MDA-MB-231 cells, exposed for 96 hours; read-out: IC50, 50% inhibition of cell proliferation, MDA-MB-231 (breast)
# Description: as §1
# [5] = test system: HL60 (leukemia); assay: In vitro cytotoxic activity MTT assay, HL60; type: cell-based; conditions: Homo sapiens, HL-60; HL60 cells, exposed for 96 hours; read-out: IC50, 50% inhibition of cell proliferation, HL60 (leukemia)
# Description: as §1
# [6] = test system: PC3 (prostate); assay: In vitro cytotoxic activity MTT assay, PC3; type: cell-based; conditions: Homo sapiens, PC-3; PC3 cells, exposed for 96 hours; read-out: IC50, 50% inhibition of cell proliferation, PC3 (prostate)
# Description: as §1
# [7] = test system: A375 (melanoma); assay: In vitro cytotoxic activity MTT assay, A375; type: cell-based; conditions: Homo sapiens, A-375; A375 cells, exposed for 96 hours; read-out: IC50, 50% inhibition of cell proliferation, A375 (melanoma)
# Description: as §1
# [8] = test system: MIAPaCa-2 (pancreas); assay: In vitro cytotoxic activity MTT assay, MIAPaCa-2; type: cell-based; conditions: Homo sapiens, MIA PaCa-2; MIAPaCa-2 cells, exposed for 96 hours; read-out: IC50, 50% inhibition of cell proliferation, MIAPaCa-2 (pancreas)
# Description: as §1
# [9] = test system: H1299 (lung); assay: In vitro cytotoxic activity MTT assay, H1299; type: cell-based; conditions: Homo sapiens, NCI-H1299; H1299 cells, exposed for 96 hours; read-out: IC50, 50% inhibition of cell proliferation, H1299 (lung)
# Description: as §1
smiles,measurement,setting,value
"O=C1Nc2c(Nc3cccc(Cl)c3)nc3cc(C(=O)O)ccc3c2C1=O [Compound 1, 4-((3-chlorophenyl)amino)-1,2-dioxo-2,3-dihydro-1H-pyrrolo[2,3-c]quinoline-7-carboxylic acid]",IC50,[1],5100 nM
same,IC50,[2],19 nM
same,IC50,[3],1100 nM
same,IC50,[4],3800 nM
same,IC50,[5],2900 nM
same,IC50,[6],900 nM
same,IC50,[7],2300 nM
same,IC50,[8],1500 nM
same,IC50,[9],1600 nM
